Literature values as cited in article PMC4457528, “Identification of Novel Small Molecule Inhibitors of Oncogenic RET Kinase” (PLoS ONE, 2015).

How the values were obtained:
[1] = tested on: RET and its gate-keeper mutants; conditions: cited from earlier work
RET Y806C = tested on: RET Y806C; set-up: method as in PMID 15184865, PMID 19029224; conditions: cited from earlier work

Cc1ccc(C(=O)Nc2ccc(CN3CCN(C)CC3)c(C(F)(F)F)c2)cc1C#Cc1cnc2cccnn12 [ponatinib]
inhibition of RET and its gate-keeper mutants [1]: potently inhibits

COc1cc2c(Nc3ccc(Br)cc3F)ncnc2cc1OCC1CCN(C)CC1 [vandetanib]
fold increase of in vitro IC50 dose for RET by Y806C (RET Y806C): 10 fold
